# Test results published in patent publication US20260248126A1, “BIOCIDE” (PURGOS APS, priority 2020, published 2026).
# “And” between values parts separate entries of the source, which are not always exact repeats. Equal values may be shown once.
# What was measured:
# [1] = tested on: Aspergillus niger ISI 3; assay: Minimal inhibitory concentration (MIC), microtiter plate read visually; assay type: cell-based
# Description: For the tested substance. the stock solution was 10%. Minimum inhibitory concentrations (MICs) are defined as the lowest concentration of an antimicrobial that will inhibit the visible growth of a microorganism after a standardized incubation. In the present study, MIC assay was performed by pipetting robot. The principle is that an indicator microorganism at a defined cell density is cultured with a range of concentrations of the test compound, one concentration pr. well in a row on the microtiter plate. For bacteria and yeasts the minimal inhibitory concentration was detected as no increase of optical density (OD), for moulds microtiter plates were read visually. Each indicator organism is tested in duplicate and the MIC is calculated as the average of the two determinations. The tested concentrations of the antimicrobial substances were 2-fold dilutions from 5%. All indicator organisms (see Table 2.) were pre-cultivated in a suitable growth medium and diluted in the same medium to give a final concentration in the assay of ~1×10^3 cfu/ml. The microtiter plates were incubated under specific incubation conditions (see Table 3). [table]
# [2] = tested on: Aspergillus niger ISI 3; assay: Minimum bactericidal concentration (MBC), outgrowth from MIC plates; assay type: cell-based
# Excerpt: (§1) Even when no growth is detectable in the MIC tests, it is possible that the microorganisms have survived the treatment i.e., they are not killed but just prevented from growing. In order to test for survivors, MBC plates were subsequently made from the MIC plates.
# [3] = tested on: Bacillus cereus ISI 842; assay: as above; assay type: cell-based
# Excerpt: as §1
# [4] = tested on: Debaryomyces hansenii ISI 12; assay: as above; assay type: cell-based
# Excerpt: as §1
# [5] = tested on: Lactobacillus brevis ISI 2269; assay: as above; assay type: cell-based
# Excerpt: as §1
# [6] = tested on: Leuconostoc mesenteroides ISI 504; assay: as above; assay type: cell-based
# Excerpt: as §1
# [7] = tested on: Listeria monocytogenes ISI 22; assay: as above; assay type: cell-based
# Excerpt: as §1
# [8] = tested on: Pseudomonas aeruginosa ISI 1462; assay: as above; assay type: cell-based
# Excerpt: as §1
# [9] = tested on: Streptococcus termophilus ISI 1563; assay: as above; assay type: cell-based
# Excerpt: as §1
# [10] = tested on: Canidida albicans ISI 1226; assay: as above; assay type: cell-based, Candida albicans
# Excerpt: as §1
# [11] = tested on: Murine norovirus; assay: Antiviral activity, ASTM E1052 Kill Time Screen test; assay type: cell-based; conditions: in 60 seconds; from log reduction 0.34
# [12] = tested on: Pseudomonas aeruginosa, ATCC 10145; assay: PT6 screening: microbial activity in pre-formulated acrylic paint (total ATP, aerobic and anaerobic growth on agar plate); assay type: cell-based
# Description: The microbial activity in relation to in-can preservation of paint was tested using three methods: ATP measurement, Aerobic growth on agar plate and Anaerobic growth on agar plate in low-air conditions. In the tests concentrations of 1, 2 and 5% NBDA was tested. […] Furthermore, no significant dependence on concentration was shown in these specific tests. Specific about the ATP measurements: test and method developed by Luminultra. A sample is taken from the test paint at a given time and the total amount of ATP is measured. Total ATP amount are measured at Day 7 and 30. After every ATP measurement, streaking of test material on agar plates has been performed. Growth test in aerobic and anaerobic environment are running in 1 and 14 days, respectively. • Test organism: Pseudomonas aeruginosa, ATCC 10145 The screening has been continuously expanded so that there are individual start-ups of three different trials. See further information in the overview table, table VIII. Table VIII overview. Samples in test. Commercial biocide is Vinkocide CMIK®. Acrylic paint is standard EN 152 (modified without PT6 biocide). P. aeruginosa are inoculated in 200 μl concentration to paint sample size of 140 ml in a sterile “paint can-shape” container. […] “Anaerobic growth day 30” were inoculated on day 20 and measured on day 31.
# [13] = tested on: Coriolus versicolor. CTB 863 A; assay: EN 113 test against wood destroying basidiomycetes (impregnated beech); assay type: cell-based
structure (smiles),measurement,setting,value
"CCCCN(CCO)CCO [NBDA, N-butyldiethanolamine]",MIC (%),[1],0.63%
same,MBC(%),[2],0.63%
same,MBC(%),[3],1.25%
same,MBC(%),[4],2.5%
same,MBC(%),[5],0.31%
same,MBC(%),[6],0.63%
same,"optical density (OD), MRC Data",[6]; NBDA 0.02%,1.449 and 1.467
same,"optical density (OD), MRC Data",[6]; NBDA 0.04%,1.449 and 1.468
same,"optical density (OD), MRC Data",[6]; NBDA 0.08%,1.413 and 1.467
same,"optical density (OD), MRC Data",[6]; NBDA 0.16%,1.337 and 1.425
same,"optical density (OD), MRC Data",[6]; NBDA 0.31%,1.452 and 1.448
same,"optical density (OD), MRC Data",[6]; NBDA 1.25%,0.075
same,"optical density (OD), MRC Data",[6]; NBDA 2.50%,0.076 and 0.077
same,"optical density (OD), MRC Data",[6]; NBDA 5.00%,0.066 and 0.067
same,MBC(%),[7],2.5%
same,MBC(%),[8],1.25%
same,MBC(%),[9],1.25%
same,"optical density (OD), MIC Data (second Streptococcus table)",[9]; NBDA 0.02%,0.346 and 0.323
same,"optical density (OD), MIC Data (second Streptococcus table)",[9]; NBDA 0.04%,0.307 and 0.283
same,"optical density (OD), MIC Data (second Streptococcus table)",[9]; NBDA 0.08%,0.311 and 0.304
same,"optical density (OD), MIC Data (second Streptococcus table)",[9]; NBDA 0.16%,0.251 and 0.232
same,"optical density (OD), MIC Data (second Streptococcus table)",[9]; NBDA 0.31%,0.802 and 0.522
same,"optical density (OD), MIC Data (second Streptococcus table)",[9]; NBDA 0.63%,0.277 and 0.427
same,"optical density (OD), MIC Data (second Streptococcus table)",[9]; NBDA 1.25%,0.072
same,"optical density (OD), MIC Data (second Streptococcus table)",[9]; NBDA 2.50%,0.070 and 0.068
same,"optical density (OD), MIC Data (second Streptococcus table)",[9]; NBDA 5.00%,0.062 and 0.058
same,MBC(%),[10],1.25%
same,Norovirus eliminated / destroyed,[11],54%
same,"anti-microbial potential in paint (ATP, aerobic and anaerobic growth)","[12]; 1, 2 and 5% NBDA in acrylic paint",all three concentrations reveal anti-microbial potentials
same,"effect against aerobic bacteria, in-can preservation of paints","[12]; concentrations of 0.5%, 1%, 2%, and 5%",effective against aerobic bacteria such Gram-negative bacteria such as Pseudomonas aeruginosa
same,"Toxic value, Sol. conc.",[13],>2.20 % w/w
